Source: patent US20090221522A1, “METHODS TO CORRECT GENE SET EXPRESSION PROFILES TO DRUG SENSITIVITY” (The Johns Hopkins University, priority 2008, published 2009)

Assays:
[1] = test system: direct-patient pancreatic cancer xenografts; assay: Xenograft treatment, relative tumor growth inhibition (TGI); format: in vivo, mice
Excerpt: Four- to six-week-old female athymic (nu/nu) mice were purchased from Harlan (Harlan Laboratories, Washington, D.C.). The research protocol was approved by the Johns Hopkins University Animal Use and Care Committee and animals were maintained in accordance to guidelines of the American Association of Laboratory Animal Care. Xenografts obtained from F1 mice were excised and cut into small ˜3×3×3 mm fragments and then implanted subcutaneously in a group of five to six mice for each patient, with two small fragments in each mouse (F2) as described above for the original carcinoma. Half of the rest of the carcinoma was cryopreserved in liquid nitrogen and the other half is processed for biological studies. When the carcinoma reached a size of 1,500 mm^3, they were excised, cut into ˜3×3×3 mm fragments, and transplanted to the final cohort of mice to be treated with the drugs (F3 and successive passages). Further details of the establishment of the direct-patient pancreatic cancer xenografts are described in Rubio-Viqueira B, Jimeno A, Cusatis G, et al. An In vivo Platform for Translational Drug Development in Pancreatic Cancer. Clin Cancer Res 2006 12:4652-61.
Gemcitabine (Eli Lilly, Indianapolis, Ind.) was dissolved in saline. In some embodiments, docetaxel (Sanofi-Aventis, Bridgewater, N.J.) was dissolved in 50% ethanol and 50% DMSO. In other embodiments, docetaxel (Sanofi-Aventis, Bridgewater, N.J.) was dissolved in ethanol/polysorbate 80 as a stock solution and diluted 10-fold in 5% glucose for in vivo studies. Temsirolimus (Wyeth Research, Colleville, Pa.) was dissolved in 10% ethanol, 10% pluronic, and 80% PBS. All drugs were freshly prepared and used at an injection volume of 0.2 mL/20 g body weight. Drug doses and treatment schedules were obtained from published studies.
Xenografts from this second mouse-to-mouse passage (F3) were allowed to grow to a size of ˜200 mm^3, at which time five-to-six mice were randomly assigned to control and treatment groups. […] For docetaxel treatment group, mice were treated with 20 mg/kg once a week via intraperitoneal injection. For temsirolimus treatment group, mice were treated with 20 mg/kg/day via intraperitoneal injection. Mice were treated for 21-28 days, monitored daily for signs of toxicity, and were weighed thrice a week. Tumor size was evaluated thrice a week by caliper measurements using the following formula: tumor volume=[length×width^2]/2 as reported by van de Vijver M J, He Y D, van't Veer L J, et al. A Gene-Expression Signature as a Predictor of Survival in Breast Cancer. N Engl J Med 2002 347:1999-2009.
(§1) Relative tumor growth index (TGI) was calculated as TGI=(Ti−T0/Ci−C0) if Ti>T0 (indicates tumor growth inhibition) and TGI=(Ti−T0) if Ti≦T0 (indicates tumor regression). T and C represent tumor size in the treated and control group at the last of experiment, respectively; T0 and C0 represent tumor size in the treated and control group at the start of treatment, respectively.

[2] = test system: patient-derived xenografts refractory to gemcitabine; assay: Pre-clinical second-line study in xenografts refractory to gemcitabine (TGI); format: in vivo, mice; conditions: for tumor volume change: second-line molecular mimicry choice (docetaxel)
Description: FIG. 11 illustrates a pre-clinical design.
FIG. 12 illustrates validation on the xenografts of FIG. 11 based on prediction according to the present invention. Four xenograft cases were used. […] A case is defined as a responder to the drug treatment if Tumor Growth Inhibition (TGI) is <20%. Negative TGI values indicate tumor regression.
as §1
Seven FDA approved anticancer agents (capecitabine, cisplatin, docetaxel, doxorubicin, etoposide, irinotecan and oxaliplatin) were used as potential second line of drugs for selection according to the present invention. The one-size-fits-all treatment was erlotinib, an FDA approved targeted therapy for advanced pancreatic cancer. See Moore M J, Goldstein D, Hamm J, et al. Erlotinib plus gemcitabine compared with gemcitabine alone in patients with advanced pancreatic cancer: a phase Ill trial of the National Cancer Institute of Canada Clinical Trials Group. J Clin Oncol 25:1960-06 2007. […] Xenograft models of these cases were randomly assigned to (i) control, (ii) erlotinib arm (one-size-fits-all second line treatment) and (iii) molecular mimicry arm (i.e., drug selection according to the present invention). For the molecular mimicry arm, the baseline gene expression profiles of these cases were connected the NCI reference panel using GS-CMAP, and one of the seven anticancer agents was assigned to the case based on comparing the GI50 among these drugs. Molecular mimicry predicted that JH033 and JH034 are sensitive to docetaxel, PANC185 is sensitive to irinotecan and PANC219 is sensitive to doxorubicin. These cases were treated with the molecular mimicry choice of drugs and tumor volumes were measured. At the end of the experiment, xenografts treated with molecular mimicry choice of drugs had higher tumor growth inhibition than their litter mates treated with erlotinib (FIGS. 12 and 13).

Compound: CO[C@H]1C[C@@H]2CC[C@@H](C)[C@@](O)(O2)C(=O)C(=O)N2CCCC[C@H]2C(=O)O[C@H]([C@H](C)C[C@@H]2CC[C@@H](OC(=O)C(C)(CO)CO)[C@H](OC)C2)CC(=O)[C@H](C)/C=C(\C)[C@@H](O)[C@@H](OC)C(=O)[C@H](C)C[C@H](C)/C=C/C=C/C=C/1C [temsirolimus]
- TGI ([1]; xenograft JH024, after temsirolimus treatment): 94%
- xenograft response (sensitive/resistant) ([1]; xenograft JH024, temsirolimus): resistant
- TGI ([1]; xenograft PANC219, after temsirolimus treatment): −23%
- xenograft response (sensitive/resistant) ([1]; xenograft PANC219, temsirolimus): sensitive

Compound: CC(=O)O[C@@]12CO[C@@H]1C[C@H](O)[C@@]1(C)C(=O)[C@H](O)C3=C(C)[C@@H](OC(=O)[C@H](O)[C@@H](NC(=O)OC(C)(C)C)c4ccccc4)C[C@@](O)([C@@H](OC(=O)c4ccccc4)[C@H]21)C3(C)C [docetaxel]
- xenograft response (sensitive/resistant) ([1]; xenograft PANC185, docetaxel): resistant
- TGI ([1]; xenograft PANC185, docetaxel for 21 days): 83%
- xenograft response (sensitive/resistant) ([1]; xenograft PANC215, docetaxel): resistant
- TGI ([1]; xenograft PANC215, docetaxel for 21 days): 41%
- xenograft response (sensitive/resistant) ([1]; xenograft PANC265, docetaxel): sensitive
- TGI ([1]; xenograft PANC265, docetaxel for 21 days): −79%
- tumor volume change ([2]; xenograft JH033): Regression in tumor volume
- tumor volume change ([2]; xenograft JH034): Regression in tumor volume

Compound: C#Cc1cccc(Nc2ncnc3cc(OCCOC)c(OCCOC)cc23)c1 [erlotinib]
- median TGI ([2]; four xenograft cases (PANC185, PANC219, JH033, JH034)): 33%
- mean TGI % ([2]; four xenograft cases, second-line arm): 30%
- responders (TGI <20%) ([2]; of four xenograft cases, second-line treatment): only one xenograft responded
